Columns and labels:
[1] = test system: Regular RNA 20-mer oligonucleotide SEQ ID NO:1; experiment: Duplex melting temperature (Tm), SEQ ID NO:1 strand as Regular RNA; assay type: binding; conditions: SEQ ID NO:1 strand Regular RNA; four μM each strand, 50 mM NaCl, 10 mM PO4 buffer, pH 7.4
Description: (§1) The stability of duplexes having 2′-substituted nucleotides versus duplexes without such modification was tested by examining the Tm of these complexes. four μM each of 20-mer oligonucleotide (5′-ggt ggt tcc tcc tca gtc gg-3′; SEQ ID NO:1) and its complement (5′-ccg act gag aag gaa cca cc-3′; SEQ ID NO:2) were bound in a solution of 50 mM NaCl, 10 mM PO4 buffer, pH 7.4. Each of the nucleotides of the oligonucleotide had the same 2′ group. Following binding, the melting temperature was determined as described (See L. L. Cummins et al., Nucleic Acids Research 23:2019-2024 (1995)).

[2] = test system: 2′-OMe RNA oligo 150-mer (SEQ ID NO:3); experiment: Fluorescence signal of 12-mer probes bound to captured 150-mer on streptavidin plate; assay type: binding; conditions: individual probes, fluorescence (Oregon Green 488)
Description: A 2′-OMe RNA oligo 150-mer (SEQ ID NO:3) was captured using a 15-mer 2′-OMe oligo tethered through biotin-streptavidin onto a white 96-well plate. Observations were taken of individual 2′-OMe 12-mers complementary to portions of the 150-mer labeled on the 5′-end with Oregon Green 488. Once the signal levels were obtained for single sequences, various combinations of the 12-mers were used to determine whether the fluorescence signal from the probes was additive. The sequences of these probes were chosen at 12-base steps through the sequence of the 150-mer.

Avidin = Avidin (Gallus gallus, UniProt P02701); conditions: cited from earlier work
Avidin, sequence (P02701 25-152): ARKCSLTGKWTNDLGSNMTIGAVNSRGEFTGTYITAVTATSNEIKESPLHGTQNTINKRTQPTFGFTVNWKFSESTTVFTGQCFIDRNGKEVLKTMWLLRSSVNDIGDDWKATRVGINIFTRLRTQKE

[3] = test system: polyclonal antibodies to cAMP; conditions: cited from earlier work
[4] = test system: Regular DNA 20-mer oligonucleotide SEQ ID NO:1; experiment: Duplex melting temperature (Tm), SEQ ID NO:1 strand as Regular DNA; assay type: binding; conditions: SEQ ID NO:1 strand Regular DNA; four μM each strand, 50 mM NaCl, 10 mM PO4 buffer, pH 7.4
Description: as §1

folate binding proteins = conditions: cited from earlier work

## 2′-O-methyl: 20-mer SEQ ID NO:2 (5′-ccg act gag aag gaa cca cc-3′), each nucleotide 2′-O-methyl
[1]
  Tm: 79 °C

## 5′-AUAGGGAAUCCU-butanol-3′ [Probe (6)]
[2]
  Signal: 810

## 5′-CCACCUCACGAA-butanol-3′ [Probe (2)]
[2]; listed as (2)
  Signal: 297

## 5′-CCACCUCACGAA-butanol-3′ [Probe (9)]
[2]; listed as (9)
  Signal: 514

## 5′-CGAGUCCUGCAC-butanol-3′ [Probe (5)]
[2]
  Signal: 85

## 5′-GCCGUACUGUAG-butanol-3′ [Probe (3)]
[2]
  Signal: 256

## 5′-GGGGCCGUACUG-butanol-3′ [Probe (10)]
[2]
  Signal: 46

## 5′-GUGCGGGUGAUG-butanol-3′ [Probe (4)]
[2]
  Signal: 115

## 5′-UGCAGUACAUGU-butanol-3′ [Probe (7)]
[2]
  Signal: 466

## 5′-UGUUCACCAUGC-butanol-3′ [Probe (1)]
[2]; listed as (1)
  Signal: 124

## 5′-UGUUCACCAUGC-butanol-3′ [Probe (8)]
[2]; listed as (8)
  Signal: 133

## COC(=O)CCCCC1SCC2C1NC(=O)N2C(=O)OC (centres unmarked) [1′-N-methoxy-carbonylbiotin methyl ester]
Avidin
  Binding affinity with Avidin: 10^7 M^−1

## O=C(O)CCCCC1SCC2NC(=S)NC21 (centres unmarked) [2-thiobiotin]
Avidin
  Binding affinity with Avidin: 10^13 M^−1

## COC(=O)CCCCC1SCC2NC(=O)N(C(=O)OC)C21 (centres unmarked) [3′-N-methoxy-carbonylbiotin methyl ester]
Avidin
  Binding affinity with Avidin: 10^9 M^−1

## O=C(O)CCCC[C@@H]1SC[C@@H]2NC(=O)N[C@@H]21 [Biotin]
Avidin
  Binding affinity with Avidin: 10^15 M^−1

## C[C@@H]1NC(=O)N[C@@H]1CCCCCC(=O)O [Dethiobiotin]
Avidin
  Binding affinity with Avidin: 10^13 M^−1

## N=C1N[C@H]2[C@H](CS[C@H]2CCCCC(=O)O)N1 [Iminobiotin]
Avidin
  Binding affinity with Avidin: 10^11 M^−1

## Nc1ncnc2c1ncn2[C@@H]1O[C@@H]2COP(=O)(O)O[C@H]2[C@H]1O [cAMP, cyclic AMP]
[3]
  Ka of polyclonal antibodies to cAMP: 10^10 to 10^12 M^−1

## Regular DNA: 20-mer SEQ ID NO:2 (5′-ccg act gag aag gaa cca cc-3′) as regular DNA [reference compound]
[1]
  Tm: 66 °C

## p-ethoxy 2′-O-methyl: 20-mer SEQ ID NO:2 (5′-ccg act gag aag gaa cca cc-3′) as p-ethoxy 2′-O-methyl
[1]
  Tm: 71 °C

## p-ethoxy DNA: 20-mer SEQ ID NO:2 (5′-ccg act gag aag gaa cca cc-3′) as p-ethoxy DNA
[4]
  Tm: 55 °C

## p-ethoxy RNA: 20-mer SEQ ID NO:2 (5′-ccg act gag aag gaa cca cc-3′) as p-ethoxy RNA
[1]
  Tm: 56 °C

## tetrahydrofolate
Folate binding proteins
  Ka: 3e+11 M⁻¹

— patent US6440723B1, “Arrays with modified oligonucleotide and polynucleotide compositions” (Oligos Etc. Inc., priority 1998, dated 2002)
